Laboratory results from publication PMC5026608 (ACS chemical biology, 2016).

Target: hMAT2A (Homo sapiens, UniProt P31153)
Test: RP-HPLC of AdoMet product formation
Type: biochemical
Conditions: read-out: Km μmol L^-1; saturating ATP 2 mM; 25 mM Tris pH 8.0, 10 mM MgCl2, 50 mM KCl; 37 °C; text prints error ± 27

Chain of hMAT2A (P31153 whole entry): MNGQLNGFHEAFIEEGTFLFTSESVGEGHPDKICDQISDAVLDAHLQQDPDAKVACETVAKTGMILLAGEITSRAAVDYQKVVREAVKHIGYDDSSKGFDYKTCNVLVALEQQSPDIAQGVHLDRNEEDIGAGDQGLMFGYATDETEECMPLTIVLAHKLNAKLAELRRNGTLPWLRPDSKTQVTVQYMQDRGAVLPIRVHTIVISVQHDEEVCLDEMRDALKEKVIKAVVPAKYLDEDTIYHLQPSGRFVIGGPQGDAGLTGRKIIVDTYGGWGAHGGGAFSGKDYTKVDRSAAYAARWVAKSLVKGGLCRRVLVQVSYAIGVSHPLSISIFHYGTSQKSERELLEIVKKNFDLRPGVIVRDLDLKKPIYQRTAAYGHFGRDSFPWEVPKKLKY

In the case of `CSCC[C@H](N)C(=O)O` [LMet], the Km is reported as 397 ± 29 µM.
